Test results from US10399971B2, “Compound for treating or preventing hyperuricemia or gout” (JIANGSU ATOM BIOSCIENCE AND PHARMACEUTICAL CO., LTD., priority 2015, dated 2019).

Legend:
[1] = test system: human normal liver cell line WRL-68; test: Cytotoxicity test on human normal liver cell line WRL-68 (Alamar Blue); format: cell-based; settings: WRL68, WRL-68 cells, 120 h incubation, cell viability, read-out: half inhibitory concentration (IC50) against WRL-68
Procedure: (§1) 2.1 The normal liver cell lines L-02 and WRL-68 were cultured with DMEM culture medium (containing 10% of fetal bovine serum, 100 U/mL of penicillin and 0.1 mg/mL of streptomycin) in an incubator under 5% CO2 at 37° C. until the cell density was about 90%, respectively.
(§2) 2.3 Tested compounds and benzbromarone at different concentration gradients were prepared by using the DMEM culture medium and added into wells at 100 μL/well as compounds wells. The DMEM culture medium was added into wells at 100 μL/well without tested compound as negative control wells.
(§3) This 10× Alamar Blue solution was diluted into 1× Alamar Blue solution with phenol red free DMEM culture medium before use.
(§4) 2.5 The cells were washed with PBS (0.1 M, pH=7.4) twice. The Alamar Blue solution was added into wells at 100 μL/well. 100 μL of Alamar Blue solution was added into wells without cells to serve as blank control wells. The 96-well plate was placed in an incubator under 5% CO2 at 37° C. for 3 h. Each concentration of compound was repeated three times during the test.
(§5) The fluorescence value of the cells containing compound is the F(test compound); the fluorescence value of the cells without compound as blank control is the F(blank control); the fluorescent value of the cells from negative control group is F(negative control). The average value and standard deviation of cell viability of three repeated concentrations was calculated by the following formula: […]
(§6) 2.7 The half inhibitory concentration (IC50) of the compound for the cells L-02 and WRL-68 was obtained from the cell viability by Prism Graph software.

[2] = test system: human normal liver cell line L-02; test: Cytotoxicity test on human normal liver cell line L-02 (Alamar Blue); format: cell-based; settings: L02, L-02 cells, 120 h incubation, cell viability, read-out: half inhibitory concentration (IC50) against L-02
Procedure: as §1, §2, §3, §4, §5, §6

hyperuricemia mice = test: Uric acid excretion test in hyperuricemia mice; format: in vivo, Kunming mice; settings: 15 mg/kg oral
Procedure: Species: Kingming mice (Clean Level); body weights: 25 to 30 g; ages: 4 to 5 weeks; sex: male. These mice were purchased from Shanghai SLAC Laboratory Animal Co., Ltd. Certificate No.: SCXK (HU) 2012-2002. Animal quality certificate number: 2015000522173.
A certain amount of adenine and yeast extract powder was weighted and a certain amount of double distilled water was added. The mixture was stirred at about 60° C. for 40 min to give a suspension, which the concentration of yeast extract is 0.6 g/mL and the concentration of adenine is 12 mg/mL.
A suspension of 20 mg/mL potassium oxonate was prepared by mixing a certain amount of potassium oxonate with 0.5% CMC-Na solution before use.
Male Kunming mice were randomly divided into four groups: blank control group, model group, compound 74 group, and benzbromarone group. Each group has six mice. All mice fasted 2 to 3 h before use. The model group, benzbromarone group, and compound 74 group were orally given a suspension of yeast extract and adenine prepared above to reach the final dosage of 10 g/kg (body weight) of yeast extract and 200 mg/kg (body weight) of adenine, respectively. The blank control group was only given same volume of normal saline orally. After 2.5 h, all mice in compound 74 group and benzbromarone group were given 10 mL/kg of suspension of compound 74 (1.5 mg/mL) and 10 mL/kg of suspension of benzbromarone (1.5 mg/mL), respectively. The blank control group and model group were orally given same volume of 0.5% CMC-Na solution. All animals were treated in the same way for seven days by using administration methods described above. On the last day, after administration of a suspension of yeast extract and adenine for the model group, compound 74 group, and benzbromarone group, all mice in these three groups were given 12.5 mL/kg of potassium oxonate (20 mg/mL) by i.p. The blank control was only given same volume of 0.5% CMC-Na solution by i.p. After 30 min, compound 74 and benzbromarone were administrated orally to the mice at same dosages as above in compound 74 group and benzbromarone group, respectively. The blank control group and model group were orally given same volume of 0.5% CMC-Na solution.
Collection of urine samples: All mice were placed in metabolic cages with normal diet individually after giving test compounds on the last day. 24 h urine was collected and the urine volume was measured. The urine was centrifugated at 3000 rpm for 20 min and the supernatant was collected.
Detection of the concentration of uric acid of mice urine samples: uric acid concentration in samples was detected by using uric acid assay kit (phosphotungstic acid method) followed the procedures described in the instruction.

hURAT1 = biological target: T1, hURAT1 (Homo sapiens, UniProt Q96S37); test: Inhibition assay of uric acid transport in HEK293-hURAT1 transfection cell line; format: cell-based; settings: read-out: Inhibitory rates of uric acid transport, ±SD (%)
T1 sequence (Q96S37 1-553): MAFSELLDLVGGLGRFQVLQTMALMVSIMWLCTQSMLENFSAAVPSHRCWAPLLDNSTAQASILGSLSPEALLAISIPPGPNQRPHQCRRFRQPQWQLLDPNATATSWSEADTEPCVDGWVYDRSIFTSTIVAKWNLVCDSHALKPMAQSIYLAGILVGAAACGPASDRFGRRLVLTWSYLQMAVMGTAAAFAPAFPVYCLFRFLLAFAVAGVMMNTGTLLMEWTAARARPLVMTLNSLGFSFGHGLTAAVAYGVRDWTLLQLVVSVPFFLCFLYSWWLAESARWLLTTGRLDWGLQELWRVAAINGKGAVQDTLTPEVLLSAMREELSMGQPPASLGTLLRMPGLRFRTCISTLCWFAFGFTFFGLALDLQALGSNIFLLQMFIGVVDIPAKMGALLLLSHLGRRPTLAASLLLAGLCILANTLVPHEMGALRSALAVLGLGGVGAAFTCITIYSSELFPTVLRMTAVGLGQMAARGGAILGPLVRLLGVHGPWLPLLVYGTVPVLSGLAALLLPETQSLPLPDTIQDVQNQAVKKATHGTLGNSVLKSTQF
Procedure: 2.1 Construction of a HEK293 stable cell line with high expression of hURAT1: The plasmid pCMV6-hURAT1 was transfected into HEK293 cells, then the stable strain was obtained by the G418 (final concentration 500 μg/mL) resistance screening, which is the high expression of hURAT1 transporter membrane protein.
2.2 To a coated 24-well plate was added 200 μL of 0.1 mg/mL poly-lysine per well and the plate was left overnight. Poly-lysine was removed from wells. The wells were cleaned thoroughly with aseptic water and dried for use.
2.3 To the above coated 24 well plate was added HEK293-hURAT1 stable cells (2×10^5 cells per well). The cells was cultured at 37° C. under 5% CO2 for 3 days.
The solution was fully mixed to give HBSS buffer (pH value: 7.4). The buffer was stored at −20° C.
2.5 The HBSS buffer was warmed to 37° C. in a water bath. Washed cells with HBSS twice, added 160 μL of HBSS and 20 μL test compound per well. The final concentration of tested compound per well is 500 nM. The blank control well contains only 180 μL of HBSS without tested compound. The plate was placed at room temperature for 30 min.
2.6 To each well was added 20 μL of 50 μM ^14C-Uric acid. The plate was placed at room temperature for 20 min.
2.7 The solution in each well was removed and the cells in each well were washed with pre-cooled HBSS buffer. To each well was added 0.2 M NaOH to dissolve the cells. The solution containing cell fragments was collected and the right amount of scintillation liquid was added.
The formula for calculating the inhibitory rate of uric acid transport for compounds was shown as below: […]

in vivo = settings: both, SD, rat, po
Excerpt: (§7) Rats were randomly divided into group A1, group B1 and blank control group. Each group has 10 of rats with half male and half female.

[3] = Acute toxicity of single oral dose in SD rats
Excerpt: as §7

## CCc1oc2ccccc2c1C(=O)c1cc(Br)c(O)c(Br)c1 [BBR, (3,5-dibromo-4-hydroxyphenyl)(2-ethyl-benzofuran-3-yl)methanone, reference compound]
[1]
  IC50: 45.5 µM
[2]
  IC50: 40.2 µM
Hyperuricemia mice; increase over model group
  uric acid excretion increased compared with the model group: about 25.35%
Hyperuricemia mice; model group set to 100%
  Changes of uric acid excretion (compared with model group, %): 125.35%
Hyperuricemia mice; seven days, 6 mice
  Uric acid in urine for 24 h, ±SD: 13.40 ± 1.59 mmol
hURAT1
  inhibition at 0.5 µM: 55.6 ± 1.42%
In vivo
  MTD at 14 days: 140 mg/kg
[3]; SD rats, single oral dose, 74 at 5.0 g/kg, BBR at 0.14 g/kg, 10 rats per group, 14 days observation
  Death rate: 0/10
[3]; pre-experiment, compound 74 at 5 g/kg (highest dose), benzbromarone at 0.14 g/kg
  death of rats in pre-experiment of acute toxicity: no death of rats was found
